Counter-ions that a name gives are not always drawn.
System: HiBiT-HSD17β13 fusion protein (N-terminal HiBiT-tagged HSD17β13 isoform D) in Huh7 HiBiT-HSD17β13 OE cells
Assay: Whole-cell Huh7-HSD17B13 HiBiT assay (degrader potency and maximal efficacy, luminescence readout)
Type: cell-based, human
Conditions: 24 hour incubation, geometric mean, * = geometric mean for all forms tested (parent and salt forms); for DC50: read-out: Huh7_HIBIT-HSD17β13_DC50 GMean DC50; for Huh7_HIBIT-HSD17β13_DC50 GMean Asymptote Maximum: max. concentration 1 μM
Outline: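 Luminescence from lytic HiBiT detection tracked residual HiBiT-HSD17β13 (isoform D, N-terminal tag) in a stable Huh7 overexpressing clone after 24 h compound treatment at 37° C, 11 concentrations up to 1 μM final. Percent effect used DMSO (zero) and parental Huh7 (high) wells; four-parameter fit gave 50% degradation; viability checked by CellTiter-Glo.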

Row | Compound | DC50 [nM] | Huh7_HIBIT-HSD17β13_DC50 GMean Asymptote Maximum
1 | COc1nc(-c2ccc3cn([C@H]4CC[C@H](CNC(=O)c5cc(F)c(O)c(F)c5F)CC4)nc3c2)nc2c1CN(CCCc1ccc3c(c1)n(C)c(=O)n3C1CCC(=O)NC1=O)C2 (mixture of isomers) [Example 126, N-{[(1r,4r)-4-{6-[6-(3-{1-[(3RS)-2,6-dioxopiperidin-3-yl]-3-methyl-2-oxo-2,3-dihydro-1H-benzimidazol-5-yl}propyl)-4-methoxy-6,7-dihydro-5H-pyrrolo[3,4-d]pyrimidin-2-yl]-2H-indazol-2-yl}cyclohexyl]methyl}-2,3,5-trifluoro-4-hydroxybenzamide, trifluoroacetate salt] | 0.36 | 84%
2 | Cn1c(=O)n(C2CCC(=O)NC2=O)c2ccc(CCCN3CCN(c4nc(-c5nc([C@]67CC[C@](CNC(=O)c8cc(F)c(O)c(F)c8F)(CC6)CC7)no5)cc(N5CCCC5)n4)CC3)cc21 (mixture of isomers) [Example 127, N-{[4-(5-{2-[4-(3-{1-[(3RS)-2,6-dioxopiperidin-3-yl]-3-methyl-2-oxo-2,3-dihydro-1H-benzimidazol-5-yl}propyl)piperazin-1-yl]-6-(pyrrolidin-1-yl)pyrimidin-4-yl}-1,2,4-oxadiazol-3-yl)bicyclo[2.2.2]octan-1-yl]methyl}-2,3,5-trifluoro-4-hydroxybenzamide, trifluoroacetate salt] | 0.37 | 79%
3 | COc1cc(-c2nc([C@]34CC[C@](CNC(=O)c5cc(F)c(O)c(F)c5F)(CC3)CC4)no2)nc(N2CCN(CCCc3ccc4c(c3)n(C)c(=O)n4C3CCC(=O)NC3=O)CC2)n1 (mixture of isomers) [Example 128, N-{[4-(5-{2-[4-(3-{1-[(3RS)-2,6-dioxopiperidin-3-yl]-3-methyl-2-oxo-2,3-dihydro-1H-benzimidazol-5-yl}propyl)piperazin-1-yl]-6-methoxypyrimidin-4-yl}-1,2,4-oxadiazol-3-yl)bicyclo[2.2.2]octan-1-yl]methyl}-2,3,5-trifluoro-4-hydroxybenzamide] | 0.4 | 79%
4 | Cn1c(=O)n(C2CCC(=O)NC2=O)c2ccc(CCCN3Cc4ccc(-c5ccc6c(C7CC7)n([C@H]7CC[C@H](CNC(=O)c8cc(F)c(O)c(F)c8F)CC7)nc6c5)cc4C3)cc21 (mixture of isomers) [Example 129, N-{[(1r,4r)-4-{3-cyclopropyl-6-[2-(3-{1-[(3RS)-2,6-dioxopiperidin-3-yl]-3-methyl-2-oxo-2,3-dihydro-1H-benzimidazol-5-yl}propyl)-2,3-dihydro-1H-isoindol-5-yl]-2H-indazol-2-yl}cyclohexyl]methyl}-2,3,5-trifluoro-4-hydroxybenzamide, trifluoroacetate salt] | 0.42 | 83%
5 | Cn1c(=O)n(C2CCC(=O)NC2=O)c2ccc(CCCN3CCN(c4cnc(-c5ccn6cc([C@]78CC[C@](CNC(=O)c9cc(F)c(O)c(F)c9F)(CC7)CC8)nc6c5)cn4)CC3)cc21 (mixture of isomers) [Example 130, N-{[4-(7-{5-[4-(3-{1-[(3RS)-2,6-dioxopiperidin-3-yl]-3-methyl-2-oxo-2,3-dihydro-1H-benzimidazol-5-yl}propyl)piperazin-1-yl]pyrazin-2-yl}imidazo[1,2-a]pyridin-2-yl)bicyclo[2.2.2]octan-1-yl]methyl}-2,3,5-trifluoro-4-hydroxybenzamide, trifluoroacetate salt] | 0.5 | 83%
6 | O=C1CCC(N2Cc3cc(N4CCC(CCN5CCN(c6nccc(-c7nc([C@]89CC[C@](CNC(=O)c%10cc(F)c(O)c(F)c%10F)(CC8)CC9)no7)n6)CC5)CC4)ccc3C2=O)C(=O)N1 (mixture of isomers) [Example 132, N-({4-[5-(2-{4-[2-(1-{2-[(3RS)-2,6-dioxopiperidin-3-yl]-1-oxo-2,3-dihydro-1H-isoindol-5-yl}piperidin-4-yl)ethyl]piperazin-1-yl}pyrimidin-4-yl)-1,2,4-oxadiazol-3-yl]bicyclo[2.2.2]octan-1-yl}methyl)-2,3,5-trifluoro-4-hydroxybenzamide, trifluoroacetate salt] | 1.6 | 82%
7 | Cn1c(=O)n(C2CCC(=O)NC2=O)c2ccc(CC(C)(C)CN3CCN(c4nccc(-c5nc([C@]67CC[C@](CNC(=O)c8cc(F)c(O)c(F)c8F)(CC6)CC7)no5)n4)CC3)cc21 (mixture of isomers) [Example 134, N-{[4-(5-{2-[4-(3-{1-[(3RS)-2,6-dioxopiperidin-3-yl]-3-methyl-2-oxo-2,3-dihydro-1H-benzimidazol-5-yl}-2,2-dimethylpropyl)piperazin-1-yl]pyrimidin-4-yl}-1,2,4-oxadiazol-3-yl)bicyclo[2.2.2]octan-1-yl]methyl}-2,3,5-trifluoro-4-hydroxybenzamide, trifluoroacetate salt] | 6.5 | 85%
8 | O=C1CCN(c2cnn3cc(CCCN4CCO[C@]5(CCN(c6ccc7cn([C@H]8CC[C@H](CNC(=O)c9cc(F)c(O)c(F)c9F)CC8)nc7c6)C5)C4)ccc23)C(=O)N1 (single isomer, unassigned) [Example 30, trifluoroacetate salt] | 1.7 | 74%
9 | Cc1ccc(C(=O)N2CCN(CCOc3ncc(-c4ccc5cn(C6CCC(CNC(=O)c7cc(F)c(O)c(F)c7F)CC6)nc5c4)cn3)CC2)cc1N1CCC(=O)NC1=O.O=C(O)C(F)(F)F (centres unmarked) [Example 7, N-{[(1r,4r)-4-{6-[2-(2-{4-[3-(2,4-Dioxo-1,3-diazinan-1-yl)-4-methylbenzoyl]piperazin-1-yl}ethoxy)pyrimidin-5-yl]-2H-indazol-2-yl}cyclohexyl]methyl}-2,3,5-trifluoro-4-hydroxybenzamide, trifluoroacetate salt] | 3 | 78* %
10 | Cl.O=C1CCN(c2cnn3cc(CCCN4CCN(c5cnc(-c6ccc7cn([C@H]8CC[C@H](CNC(=O)c9cc(F)c(O)c(F)c9F)CC8)nc7c6)cn5)CC4)ccc23)C(=O)N1 [Example 10, N-{[(1r,4r)-4-{6-[5-(4-{3-[3-(2,4-Dioxo-1,3-diazinan-1-yl)pyrazolo[1,5-a]pyridin-6-yl]propyl}piperazin-1-yl)pyrazin-2-yl]-2H-indazol-2-yl}cyclohexyl]methyl}-2,3,5-trifluoro-4-hydroxybenzamide, hydrochloride salt] | 0.28 | 82%
11 | Cc1ccc(C(=O)N2CCC3(CC2)CC(N2CCN(c4ncc(-c5ccc6cn(C7CCC(CNC(=O)c8cc(F)c(O)c(F)c8F)CC7)nc6c5)cn4)CC2)CO3)cc1N1CCC(=O)NC1=O (centres unmarked) [Example 11, N-{[(1r,4r)-4-{6-[2-(4-{8-[3-(2,4-Dioxo-1,3-diazinan-1-yl)-4-methylbenzoyl]-1-oxa-8-azaspiro[4.5]decan-3-yl}piperazin-1-yl)pyrimidin-5-yl]-2H-indazol-2-yl}cyclohexyl]methyl}-2,3,5-trifluoro-4-hydroxybenzamide] | 0.94 | 81%
12 | O=C(O)C(F)(F)F.O=C1CCN(c2cnc3cc(CCCN4CCN(c5ncc(-c6ccc7cn(C8CCC(CNC(=O)c9cc(F)c(O)c(F)c9F)CC8)nc7c6)cn5)CC4)ccn23)C(=O)N1 (centres unmarked) [Example 19, N-{[(1r,4r)-4-{6-[2-(4-{3-[3-(2,4-Dioxo-1,3-diazinan-1-yl)imidazo[1,2-a]pyridin-7-yl]propyl}piperazin-1-yl)pyrimidin-5-yl]-2H-indazol-2-yl}cyclohexyl]methyl}-2,3,5-trifluoro-4-hydroxybenzamide, trifluoroacetate salt] | 0.73 | 82%
13 | Cc1ccc(C(=O)N2CCC(CCCCN3CCN(c4ccc5cn(C6CCC(CNC(=O)c7cc(F)c(O)c(F)c7F)CC6)nc5c4)CC3)CC2)cc1N1CCC(=O)NC1=O (centres unmarked) [Example 20, N-{[(1r,4r)-4-{6-[4-(4-{1-[3-(2,4-Dioxo-1,3-diazinan-1-yl)-4-methylbenzoyl]piperidin-4-yl}butyl)piperazin-1-yl]-2H-indazol-2-yl}cyclohexyl]methyl}-2,3,5-trifluoro-4-hydroxybenzamide] | 2.3 | 78%
14 | Cc1ccc(C(=O)N2CCC(CCCn3cc(-c4ccc5cn([C@H]6CC[C@H](CNC(=O)c7cc(F)c(O)c(F)c7)CC6)nc5c4)cn3)CC2)cc1N1CCC(=O)NC1=O [Example 23, N-{[(1r,4r)-4-{6-[1-(3-{1-[3-(2,4-dioxo-1,3-diazinan-1-yl)-4-methylbenzoyl]piperidin-4-yl}propyl)-1H-pyrazol-4-yl]-2H-indazol-2-yl}cyclohexyl]methyl}-3,5-difluoro-4-hydroxybenzamide] | 2.4 | 75%
15 | O=C1CCN(c2cnn3cc(CCCN4CCOC5(CCN(c6ccc7cn([C@H]8CC[C@H](CNC(=O)c9cc(F)c(O)c(F)c9F)CC8)nc7c6)CC5)C4)ccc23)C(=O)N1 [Example 28, N-({(1r,4r)-4-[6-(4-{3-[3-(2,4-dioxo-1,3-diazinan-1-yl)pyrazolo[1,5-a]pyridin-6-yl]propyl}-1-oxa-4,9-diazaspiro[5.5]undecan-9-yl)-2H-indazol-2-yl]cyclohexyl}methyl)-2,3,5-trifluoro-4-hydroxybenzamide] | 0.59 | 90%
16 | O=C1CCN(c2cnn3cc(CCCN4CC(F)(F)C5(C4)CN(c4ccc6cn([C@H]7CC[C@H](CNC(=O)c8cc(F)c(O)c(F)c8F)CC7)nc6c4)C5)ccc23)C(=O)N1 [Example 29, N-({(1r,4r)-4-[6-(6-{3-[3-(2,4-dioxo-1,3-diazinan-1-yl)pyrazolo[1,5-a]pyridin-6-yl]propyl}-8,8-difluoro-2,6-diazaspiro[3.4]octan-2-yl)-2H-indazol-2-yl]cyclohexyl}methyl)-2,3,5-trifluoro-4-hydroxybenzamide] | 1.9 | 80%

Source: patent US20240238425A1, “HSD17B13 Inhibitors and/or Degraders” (Pfizer Inc., priority 2022, published 2024)
